Assay results reported in ChEMBL document CHEMBL5252564, “It's ok to be outnumbered - sub-stoichiometric modulation of homomeric protein complexes” (RSC Med Chem, 2023).
Peptide text beside a SMILES is read from it. * marks the point of attachment. X1 = CC(C)[C@H](N*)B(O)O

What was measured:
[1] = biological target: Programmed cell death 1 ligand 1 (Homo sapiens) (UniProt Q9NZQ7)
Description: Binding affinity to human PD-L1 (18 to 134 residues) expressed in Escherichia coli BL21(DE3) assessed as thermal stabilization by measuring melting temperature by DSF assay

[2] = biological target: T1, ATP-dependent Clp protease proteolytic subunit (Staphylococcus aureus (strain NCTC 8325)) (UniProt Q2G036); test: Inhibition of Staphylococcus aureus ClpP assessed as active site modification at 1 uM treated for 1 hr by mass spectrometry analysis relative to control
T1 sequence (whole entry): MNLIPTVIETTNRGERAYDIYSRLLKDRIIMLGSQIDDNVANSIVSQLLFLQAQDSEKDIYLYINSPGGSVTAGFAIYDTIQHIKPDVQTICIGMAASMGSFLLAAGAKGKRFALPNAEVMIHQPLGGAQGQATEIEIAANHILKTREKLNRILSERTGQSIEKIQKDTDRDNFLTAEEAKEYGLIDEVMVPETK

[3] = Binding affinity to Escherichia coli DegP using SPMFKGV-pNA as substrate at resting state by isothermal titration calorimetry
[4] = Binding affinity to Escherichia coli DegP using SPMFKGV-pNA as substrate at activated state by isothermal titration calorimetry

Sequence of Programmed cell death 1 ligand 1 (Homo sapiens) (Q9NZQ7 whole entry): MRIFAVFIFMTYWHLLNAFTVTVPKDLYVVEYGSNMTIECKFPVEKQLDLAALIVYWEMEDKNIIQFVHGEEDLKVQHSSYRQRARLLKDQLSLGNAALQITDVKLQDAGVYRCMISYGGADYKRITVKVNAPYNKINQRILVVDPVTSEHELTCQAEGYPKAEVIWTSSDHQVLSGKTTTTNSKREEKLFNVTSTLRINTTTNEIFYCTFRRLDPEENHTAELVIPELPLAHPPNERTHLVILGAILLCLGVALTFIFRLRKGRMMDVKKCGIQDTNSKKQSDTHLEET

Structure (SMILES): COc1nc(OCc2cccc(-c3ccccc3)c2C)ccc1CNCCNC(C)=O
- ΔTm [1]: 13 °C

Structure (SMILES): C#CCCC[C@H]1OC(=O)[C@@H]1c1ccc(OC)cc1
- inhibition [2]: 35%

Structure (SMILES): C#Cc1ccc(C(=O)C2CN(C(=O)CCCCCCCCC=C)S2(=O)=O)cc1 (stereo not given)
- inhibition [2]: 63%

Structure (SMILES): CSCC[C@H](NC(=O)[C@@H]1CCCN1C(=O)[C@@H](N)CC(=O)O)C(=O)N[C@@H](Cc1ccccc1)C(=O)N[C@@H](CCCCN)C(=O)N[C@@H](CC(C)C)C(=O)N[C@H](B(O)O)C(C)C (H-DPMFKL-X1)
- Kd [3]: 6 µM
- Kd [4]: 0.033 µM
